The record followed here is patent publication US20250163104A1, “MACROCYCLIC IMMUNOMODULATORS” (priority 2021, published 2025).

The target in this assay is T1, human PD-1 / PD-L1-Ig binding on Jurkat cell line over-expressing human PD-1 (Jurkat-PD-1) (Homo sapiens, UniProt Q15116).
T1 construct: expressed in transfected cells; host or cells: Jurkat
Kind of assay: Jurkat-PD-1 Cell Binding High-Content Screening Assay (CBA). The class given is cell-based. The following applies: Jurkat-PD-1 cells, PE-labeled PD-L1-Ig 20 nM final; read-out: Jurkat HPD1_PDL1 IC50. The protocol:
Example 3. Jurkat-PD-1 Cell Binding High-Content Screening Assay (CBA)
Jurkat-PD-1 Cell Binding High-Content Screening Assay (CBA). Phycoerythrin (PE) was covalently linked to the Ig epitope tag of human PD-L1-Ig and fluorescently-labeled PD-L1-Ig was used for binding studies with a Jurkat cell line over-expressing human PD-1 (Jurkat-PD-1). Briefly, 8×10^3 Jurkat-hPD-1 cells were seeded into 384 well plates in 20 μl of DMEM supplemented with 10% fetal calf serum. 100 nL of compound was added to cells followed by incubation at 37° C. for 2 h. Then, 5 μl of PE-labeled PD-L1-Ig (20 nM final), diluted in DMEM supplemented with 10% fetal calf serum. After 1 hour incubation, cells were fixed with 4% paraformaldehyde in dPBS containing 10 μg/ml Hoechst 33342 and then washed 3x in 100 μl dPBS. Data was collected and processed using a Cell Insight NXT High Content Imager and associated software.

Where a SMILES comes first, the peptide text is derived from it. Bridges are numbered along the chain shown (N, C = ends). [ ]: non-standard residue; d: D form. The star is where a group is joined. ξ: configuration not given here. Phe(3-CF3) = N[C@@H](Cc1cccc(C(F)(F)F)c1)C(=O)O; Phe(4-COOH) = N[C@@H](Cc1ccc(C(=O)O)cc1)C(=O)O; Phe(4-CH2NH2) = NCc1ccc(C[C@H](N)C(=O)O)cc1; Bip = N[C@@H](Cc1ccc(-c2ccccc2)cc1)C(=O)O; Phe(3-Me) = Cc1cccc(C[C@H](N)C(=O)O)c1; Phe(4-Me) = Cc1ccc(C[C@H](N)C(=O)O)cc1; Val(3-OH) = CC(C)(O)[C@H](N)C(=O)O; Aha = [N-]=[N+]=NCC[C@H](N)C(=O)O; 4Pal = N[C@@H](Cc1ccncc1)C(=O)O; Cha = N[C@@H](CC1CCCCC1)C(=O)O; Ile(3ξ) = CCC(C)[C@H](N)C(=O)O; Thr(3ξ) = CC(O)[C@H](N)C(=O)O; Carboxymethyl = O=C(O)C*; Nle = CCCC[C@H](N)C(=O)O; Orn = NCCC[C@H](N)C(=O)O; Dab = NCC[C@H](N)C(=O)O; Dap = NC[C@H](N)C(=O)O; Propargyl = C#CC*

T1 sequence (Q15116 25-288): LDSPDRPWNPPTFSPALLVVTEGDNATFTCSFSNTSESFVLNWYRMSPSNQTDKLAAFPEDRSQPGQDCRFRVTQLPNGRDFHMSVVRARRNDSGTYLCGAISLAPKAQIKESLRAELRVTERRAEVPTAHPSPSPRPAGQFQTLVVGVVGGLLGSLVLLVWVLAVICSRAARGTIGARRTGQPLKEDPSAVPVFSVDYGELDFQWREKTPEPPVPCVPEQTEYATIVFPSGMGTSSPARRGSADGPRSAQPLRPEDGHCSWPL

Consider `CCC(C)[C@@H]1NC(=O)[C@H](Cc2ccc(-c3ccccc3)cc2)NC(=O)[C@H](Cc2ccccc2)NC(=O)[C@H](Cc2c[nH]c3ccccc23)NC(=O)[C@H](CC(=O)O)NC(=O)[C@H](Cc2ccc(OCC(=O)O)cc2)NC(=O)[C@H](C(C)O)NC(=O)CSC[C@@H](C(=O)N[C@@H](CC(N)=O)C(=O)O)NC(=O)[C@H](CO)NC(=O)[C@H](C(C)C)NC(=O)[C@H](CC(C)C)NC(=O)[C@H](CCN)NC(=O)[C@@H](CC(C)C)NC(=O)[C@H](CCCN)NC1=O` (stereo partly drawn) [Compound 2574] ({CH2CO}-[Thr(3ξ)]Y(Carboxymethyl)DWF[Bip][Ile(3ξ)][Orn][dL][Dab]LVSCN-OH; thioether N-14), for which the IC50 is 132 nM.

As to `Cc1cccc(C[C@@H]2NC(=O)[C@H](CC(=O)O)NC(=O)[C@H](Cc3ccc(C(=O)O)cc3)NC(=O)[C@H](CN)NC(=O)CSC[C@@H](C(N)=O)NC(=O)[C@H](CO)NC(=O)[C@H](C(C)C)NC(=O)[C@H](CC3CCCCC3)NC(=O)[C@H](CCN)NC(=O)[C@@H](CC(C)C)NC(=O)[C@H](CCCN)NC(=O)[C@H](C(C)C)NC(=O)[C@H](Cc3ccc(-c4ccccc4)cc3)NC(=O)[C@H](Cc3ccc(CN)cc3)NC2=O)c1` [Compound 2031] ({CH2CO}-[Dap][Phe(4-COOH)]D[Phe(3-Me)][Phe(4-CH2NH2)][Bip]V[Orn][dL][Dab][Cha]VSC-NH2; thioether N-14), the IC50 turned out to be 10.9 nM.

Regarding `CCCC[C@@H]1NC(=O)CSC[C@@H](C(=O)N[C@@H](CCN)C(N)=O)NC(=O)[C@H](CO)NC(=O)[C@H](C(C)(C)O)NC(=O)[C@H](CC2CCCCC2)NC(=O)[C@H](CCN)NC(=O)[C@@H](CC(C)C)NC(=O)[C@H](CCCN)NC(=O)[C@H](Cc2ccc(C(=O)O)cc2)NC(=O)[C@H](Cc2ccc(-c3ccccc3)cc2)NC(=O)[C@H](Cc2ccc(C(=O)O)cc2)NC(=O)[C@H](Cc2cccc(C(F)(F)F)c2)NC(=O)[C@H](CC(N)=O)NC(=O)[C@H](Cc2ccc(C(=O)O)cc2)NC1=O` [Example 2718] ({CH2CO}-[Nle][Phe(4-COOH)]N[Phe(3-CF3)][Phe(4-COOH)][Bip][Phe(4-COOH)][Orn][dL][Dab][Cha][Val(3-OH)]SC[Dab]-NH2; thioether N-14), the IC50 was determined as 330 nM.

With `Cc1ccc(C[C@@H]2NC(=O)[C@H](C(C)O)NC(=O)CSC[C@@H](C(=O)N[C@@H](CCN)C(N)=O)NC(=O)[C@H](Cc3c[nH]cn3)NC(=O)[C@H](C(C)(C)O)NC(=O)[C@H](CC3CCCCC3)NC(=O)[C@H](CCN)NC(=O)[C@@H](CC(C)C)NC(=O)[C@H](CCCN)NC(=O)[C@H](Cc3ccc(OCC(=O)O)cc3)NC(=O)[C@H](Cc3ccc(-c4ccccc4)cc3)NC(=O)[C@H](Cc3ccc(OCC(=O)O)cc3)NC(=O)[C@H](Cc3cccc(C)c3)NC(=O)[C@H](CC(=O)O)NC2=O)cc1` (stereo partly drawn) [Compound 2671] ({CH2CO}-[Thr(3ξ)][Phe(4-Me)]D[Phe(3-Me)]Y(Carboxymethyl)[Bip]Y(Carboxymethyl)[Orn][dL][Dab][Cha][Val(3-OH)]HC[Dab]-NH2; thioether N-14), the IC50 amounted to 9.2 nM.

With `C#CCOc1ccc(C[C@@H]2NC(=O)[C@H](CN)NC(=O)CSC[C@@H](C(=O)N[C@@H](CCN=[N+]=[N-])C(N)=O)NC(=O)[C@H]([C@@H](C)O)NC(=O)[C@H](C(C)C)NC(=O)[C@H](CC3CCCCC3)NC(=O)[C@H](CCN)NC(=O)[C@@H](CC(C)C)NC(=O)[C@H](CCCN)NC(=O)[C@H](CCC(=O)O)NC(=O)[C@H](Cc3ccc(-c4ccccc4)cc3)NC(=O)[C@H](C(C)C)NC(=O)[C@H](Cc3c[nH]c4ccccc34)NC(=O)[C@H](CC(=O)O)NC2=O)cc1` [Compound 1536] ({CH2CO}-[Dap]Y(Propargyl)DWV[Bip]E[Orn][dL][Dab][Cha]VTC[Aha]-NH2; thioether N-14), the IC50 was determined as 59.3 nM.

On to `C#CCOc1ccc(C[C@@H]2NC(=O)[C@H](Cc3ccc(-c4ccccc4)cc3)NC(=O)[C@H](Cc3ccc(C(=O)O)cc3)NC(=O)[C@H](Cc3cccc(C)c3)NC(=O)[C@H](CC(=O)O)NC(=O)[C@H](Cc3ccc(C(=O)O)cc3)NC(=O)[C@H](Cc3ccc(OCC(=O)O)cc3)NC(=O)CSC[C@@H](C(=O)N[C@@H](CCN)C(N)=O)NC(=O)[C@H](CCC(=O)O)NC(=O)[C@H](C(C)C)NC(=O)[C@H](CC3CCCCC3)NC(=O)[C@H](CCN)NC(=O)[C@@H](CC(C)C)NC(=O)[C@H](CCCN)NC2=O)cc1` [Compound 1844] ({CH2CO}-Y(Carboxymethyl)[Phe(4-COOH)]D[Phe(3-Me)][Phe(4-COOH)][Bip]Y(Propargyl)[Orn][dL][Dab][Cha]VEC[Dab]-NH2; thioether N-14), for which the IC50 was 13.2 nM.

For the compound `Cc1cccc(C[C@@H]2NC(=O)[C@H](CC(=O)O)NC(=O)[C@H](Cc3ccc(OCC(=O)O)cc3)NC(=O)[C@H](Cc3ccncc3)NC(=O)CSC[C@@H](C(=O)N[C@@H](CCN)C(N)=O)NC(=O)[C@H](CO)NC(=O)[C@H](C(C)(C)O)NC(=O)[C@H](CC3CCCCC3)NC(=O)[C@H](Cc3cnc[nH]3)NC(=O)[C@@H](CC(C)C)NC(=O)[C@H](CCCN)NC(=O)[C@H](Cc3ccc(OCC(=O)O)cc3)NC(=O)[C@H](Cc3ccc(-c4ccccc4)cc3)NC(=O)[C@H](Cc3ccc(OCC(=O)O)cc3)NC2=O)c1` [Compound 2645] ({CH2CO}-[4Pal]Y(Carboxymethyl)D[Phe(3-Me)]Y(Carboxymethyl)[Bip]Y(Carboxymethyl)[Orn][dL]H[Cha][Val(3-OH)]SC[Dab]-NH2; thioether N-14), the IC50 was 11.7 nM.

As for `CC(C)C[C@@H]1NC(=O)[C@H](Cc2c[nH]c3ccccc23)NC(=O)[C@H](CC(=O)O)NC(=O)[C@H](Cc2ccc(O)cc2)NC(=O)[C@H](Cc2ccccc2)NC(=O)CSC[C@@H](C(=O)NCC(N)=O)NC(=O)[C@H](CO)NC(=O)[C@H](C(C)C)NC(=O)[C@H](CC(C)C)NC(=O)[C@H](CCN)NC(=O)[C@@H](CC(C)C)NC(=O)[C@H](CCCN)NC(=O)[C@H](C(C)C)NC(=O)[C@H](Cc2ccc(-c3ccccc3)cc2)NC1=O` [Compound 1073] ({CH2CO}-FYDWL[Bip]V[Orn][dL][Dab]LVSCG-NH2; thioether N-14), the IC50 was 10 nM.

Regarding `CCC(C)[C@@H]1NC(=O)[C@H](Cc2ccc(-c3ccccc3)cc2)NC(=O)[C@H](C(C)C)NC(=O)[C@H](Cc2cc(OC)ccc2F)NC(=O)[C@H](CC(=O)O)NC(=O)[C@H](Cc2ccc(OCC(=O)O)cc2)NC(=O)[C@H](CN)NC(=O)CSC[C@@H](C(=O)N[C@@H](C)C(N)=O)NC(=O)[C@H]([C@@H](C)O)NC(=O)[C@H](C(C)C)NC(=O)[C@H](CC2CCCCC2)NC(=O)[C@H](CCN)NC(=O)[C@@H](CC(C)C)NC(=O)[C@H](CCCN)NC1=O` (some centres unmarked) [Compound 2248], the IC50 was found to be 13.8 nM.

Regarding `Cc1cccc(C[C@@H]2NC(=O)[C@H](CC(=O)O)NC(=O)[C@H](Cc3ccc(C(=O)O)cc3)NC(=O)[C@H](CN)NC(=O)CSC[C@@H](C(=O)N[C@@H](C)C(N)=O)NC(=O)[C@H]([C@@H](C)O)NC(=O)[C@H](C(C)C)NC(=O)[C@H](CC3CCCCC3)NC(=O)[C@H](CCN)NC(=O)[C@@H](CC(C)C)NC(=O)[C@H](CCCN)NC(=O)[C@H](C(C)C)NC(=O)[C@H](Cc3ccc(-c4ccccc4)cc3)NC(=O)[C@H](C(C)C)NC2=O)c1` [Compound 1206], the IC50 stood at 8.9 nM.

On to `CC(C)C[C@H]1NC(=O)[C@H](CCCN)NC(=O)[C@H](CCCNC(N)=O)NC(=O)[C@H](Cc2ccc(-c3ccccc3)cc2)NC(=O)[C@H](C(C)C)NC(=O)[C@H](Cc2c[nH]c3ccccc23)NC(=O)[C@H](CC(=O)O)NC(=O)[C@H](Cc2ccncc2)NC(=O)[C@H](CN)NC(=O)CSC[C@@H](C(=O)N[C@@H](C)C(N)=O)NC(=O)[C@H]([C@@H](C)O)NC(=O)[C@H](C(C)C)NC(=O)[C@H](CC2CCCCC2)NC(=O)[C@H](CCN)NC1=O` [Compound 2096], for which the IC50 turned out to be 4.5 nM.
